One series deals with T1, human PDE10A enzyme (Homo sapiens, UniProt Q9Y233).
T1 construct: Human PDE10A full-length gene was transfected into Sf9 or COS-7 cells; His-tag; made in house; host or cells: Sf9 or COS-7 cells
The series can be described thus: PDE10A enzyme activity inhibition test (SPA). Format: biochemical. The following applies: for inhibition at 0.1 µM: 100 nM compound, read-out: Inhibition rate (%) (100 nM); for pIC50: [3H]cGMP substrate. The procedure:
Human PDE10A full-length gene was transfected into Sf9 or COS-7 cells, the cells were disrupted and centrifuged, and human PDE10A enzyme was obtained from the residue. The enzyme extracted from Sf9 cells was partially purified using His-tag affinity column. The enzyme was stored at −70° C. until use. The PDE activity was measured using an SPA (Scintillation Proximity Assay) (GE Healthcare). To measure the inhibitory activity of the compound, 10 μL of serially diluted compound was reacted with 20 μL of PDE enzyme in an assay buffer (50 mM HEPES-NaOH, 8.3 mM MgCl2, 1.7 mM EGTA, 0.1% BSA (pH 7.4)) […] at room temperature. The final concentration of DMSO in the reaction mixture was 1 percent. The compounds were evaluated in duplicate in 96-well half-area plates (Corning). To start the reaction, 10 μL of substrate [^3H] cGMP (25 and 50 nM; GE Healthcare and PerkinElmer, respectively) was added to 40 μL. After 60 min of reaction at room temperature, yttrium SPA beads containing zinc sulphate were added (6 mg/mL, 20 μL) to terminate the PDE reaction. After standing still for 1 hr, the measurement was performed using a scintillation counter (PerkinElmer) and the PDE10A enzyme activity inhibition rate was calculated. The inhibition rate was calculated based on the control containing enzyme and DMSO as 0% and the control without enzyme as 100%.

pIC50: −log10 of the molar value. Bounds are passed on as bounds.

T1 sequence (Q9Y233 267-1055): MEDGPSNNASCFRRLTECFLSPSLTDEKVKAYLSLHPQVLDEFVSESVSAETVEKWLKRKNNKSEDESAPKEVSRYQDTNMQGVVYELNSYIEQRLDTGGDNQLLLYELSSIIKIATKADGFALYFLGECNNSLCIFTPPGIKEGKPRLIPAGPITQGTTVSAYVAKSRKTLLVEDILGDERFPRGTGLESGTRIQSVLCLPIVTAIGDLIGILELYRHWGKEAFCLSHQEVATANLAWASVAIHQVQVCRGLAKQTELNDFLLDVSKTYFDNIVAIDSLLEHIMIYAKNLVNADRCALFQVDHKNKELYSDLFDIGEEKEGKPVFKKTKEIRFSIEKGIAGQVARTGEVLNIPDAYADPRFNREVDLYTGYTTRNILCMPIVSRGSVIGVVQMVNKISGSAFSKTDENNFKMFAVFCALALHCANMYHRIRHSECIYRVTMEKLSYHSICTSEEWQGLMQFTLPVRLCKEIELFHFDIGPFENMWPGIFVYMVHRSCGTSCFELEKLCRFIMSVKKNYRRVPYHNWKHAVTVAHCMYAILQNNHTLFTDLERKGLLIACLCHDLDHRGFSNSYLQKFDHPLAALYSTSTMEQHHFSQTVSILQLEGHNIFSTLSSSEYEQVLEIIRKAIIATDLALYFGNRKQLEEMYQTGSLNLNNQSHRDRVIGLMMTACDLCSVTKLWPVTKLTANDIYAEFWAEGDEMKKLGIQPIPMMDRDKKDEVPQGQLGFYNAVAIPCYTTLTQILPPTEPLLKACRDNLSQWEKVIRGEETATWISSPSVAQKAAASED

What is called melting point is the temperature, or range, at which the solid turns liquid. `COc1cn(-c2ccc(-n3cccn3)cc2F)nc(-c2ccnn2CC(F)(F)F)c1=O` [Example 6, 1-[2-fluoro-4-(1H-pyrazol-1-yl)phenyl]-5-methoxy-3-[1-(2,2,2-trifluoroethyl)-1H-pyrazol-5-yl]pyridazin-4(1H)-one] returned a melting point of 185 to 187 °C. For the molecule `COc1cn(-c2ccc(-n3cc(F)c(F)c3)cc2O)nc(-c2ccnn2-c2ccccc2)c1=O` [Example 11, 1-[4-(3,4-difluoro-1H-pyrrol-1-yl)-2-hydroxyphenyl]-5-methoxy-3-(1-phenyl-1H-pyrazol-5-yl)pyridazin-4(1H)-one], the melting point fell in the range of 241 to 243 °C. One may read the inhibition as the relative decrease from the control value, in per cent. The pIC50 is −log10 of the IC50, conventionally taken in molar units. Consider `COc1cn(-c2ccc3c(c2F)C(C)(C)C(=O)N3C2CCC2)nc(-c2ccnn2-c2ccccc2)c1=O` [Example 50, 1-cyclobutyl-4-fluoro-5-[5-methoxy-4-oxo-3-(1-phenyl-1H-pyrazol-5-yl)pyridazin-1(4H)-yl]-3,3-dimethyl-1,3-dihydro-2H-indol-2-one], for which, at human PDE10A enzyme, the inhibition at 0.1 µM turned out to be 101% and the negative logarithm of the IC50 (pIC50) was ≥ 8.00. On to `COc1cn(-c2cnn(CC3CC3)c2)nc(-c2cc(C)nn2-c2ccccc2)c1=O` [Example 51, 1-[1-(cyclopropylmethyl)-1H-pyrazol-4-yl]-5-methoxy-3-(3-methyl-1-phenyl-1H-pyrazol-5-yl)pyridazin-4(1H)-one], for which, on human PDE10A enzyme, the inhibition at 0.1 µM is 102% and the pIC50 was ≥ 8.00.

Consider `COc1nc(N2CC(F)(F)C(F)(F)C2)ccc1-n1cc(OC)c(=O)c(-c2ccnn2-c2ccccc2)n1` [Example 52, 5-methoxy-1-[2-methoxy-6-(3,3,4,4-tetrafluoropyrrolidin-1-yl)pyridin-3-yl]-3-(1-phenyl-1H-pyrazol-5-yl)pyridazin-4(1H)-one], for which, on human PDE10A enzyme, the inhibition at 0.1 µM was found to be 101% and the pIC50 was ≥ 8.00.

Regarding `COc1nc(-n2cc(F)c(F)c2)ccc1-n1cc(OC)c(=O)c(-c2ccnn2-c2ccccc2)n1` [Example 53, 1-[6-(3,4-difluoro-1H-pyrrol-1-yl)-2-methoxypyridin-3-yl]-5-methoxy-3-(1-phenyl-1H-pyrazol-5-yl)pyridazin-4(1H)-one], on human PDE10A enzyme, the inhibition at 0.1 µM was found to be 97% and the pIC50 was ≥ 8.00. On the same counts, the results for `COc1cn(-c2cnn(CC3(C)CC3)c2)nc(-c2ccnn2-c2ccccc2)c1=O` [Example 54, 5-methoxy-1-{1-[(1-methylcyclopropyl)methyl]-1H-pyrazol-4-yl}-3-(1-phenyl-1H-pyrazol-5-yl)pyridazin-4(1H)-one] are 101% and ≥ 8.00.

These data come from patent US9090586B2, “Heterocyclic compound” (TAKEDA PHARMACEUTICAL COMPANY LIMITED, priority 2010, dated 2015).
